In patent US11369605B2, “Optically active azabicyclo ring derivative” (priority 2018, dated 2022):

Columns and labels:
[1] = molecular target: Menin-MLL binding (His-Menin1-615, MLL1-172-FLAG) (Homo sapiens (Human), UniProt O00255); test: Test 1: inhibition of the Menin-MLL binding (HTRF); settings: summary of Test 1 table
Experimental: Test 1: Test for Evaluating the Inbinition of the Menin-MLL Binding
After the incubation, the signal was detected with RUBYstar (BMG LABTECH).

[2] = system: RS4; 11 cells; test: Test 2: inhibition of cell proliferation, RS4; 11; assay type: cell-based; settings: for cell proliferation inhibition activity (in words): summary of Test 2 (RS4; 11 and MOLM-13); for IC50: Homo sapiens, RS4, 11 cells, cultured 7 days, PrestoBlue
Experimental: (§1) Test for Evaluating the Inhibition of Cell Proliferation RS4; 11 cells were obtained from American Type Culture Collection (ATCC). […] MOLM-13 cells were separately obtained from DSMZ (Deutsche Sammlung von Mikroorganismen und Zeilkulturen GmbH). […] The cells were plated to a 96-well plate in 2000 cells/well, each test compound was added thereto to adjust the final concentration of DMSO to 0.1% of DMSO, and the cells were cultured for 7 days. After the cultivation, the cell viability was calculated with PrestoBlue™ Cell Viability Reagent (Invitrogen, A13261).

[3] = system: MEIS1 mRNA in MV4; 11 cells; test: Test 3: inhibition of mRNA transcription, MEIS1; assay type: cell-based; settings: for mRNA transcription inhibition activity (in words): MEIS1 and HOXA9, MV4, summary of Test 3; for mRNA at 1 μM (% control) MEIS1: MV4, 1 μM, 20 to 24 hours, fitted with GAPDH
Experimental: (§2) Test 3: Test for the Inhibition of mRNA Transcription with Test Compounds
(§3) MV4; 11 cells were obtained from American Type Culture Collection (ATCC). […] After the incubation, the total RNA was extracted from the cells with RNeasy™ Mini Kit (QIAGEN, 74106), and cDNA was synthesized with Superscript™ VILO™ cDNA Synthesis Kit (Invitrogen, #11754250). By using TaqMan™ Gene Expression Master Mix (Applied Biosystems, 4369016) and TaqMan™ probe (Applied Biosystems), the expression level of mRNA was quantified from the obtained cDNA with 7900HT (Applied Biosystems). The expression level of each obtained gene (MEIS1 and HOXA9) was fitted with the expression level of mRNA of GAPDH.

[4] = system: HOXA9 mRNA in MV4; 11 cells; test: Test 3: inhibition of mRNA transcription, HOXA9; assay type: cell-based; settings: 20 to 24 hours, fitted with GAPDH
Experimental: as §2, §3

[5] = molecular target: hERG (human Ether-a-go-go Related Gene) (Homo sapiens (Human), UniProt Q12809); test: Test 4: hERG inhibition (QPatch HT); settings: for gap between RS4; 11 proliferation IC50 and hERG current IC50: summary of Test 4 table
hERG (human Ether-a-go-go Related Gene), sequence (Q12809 whole entry): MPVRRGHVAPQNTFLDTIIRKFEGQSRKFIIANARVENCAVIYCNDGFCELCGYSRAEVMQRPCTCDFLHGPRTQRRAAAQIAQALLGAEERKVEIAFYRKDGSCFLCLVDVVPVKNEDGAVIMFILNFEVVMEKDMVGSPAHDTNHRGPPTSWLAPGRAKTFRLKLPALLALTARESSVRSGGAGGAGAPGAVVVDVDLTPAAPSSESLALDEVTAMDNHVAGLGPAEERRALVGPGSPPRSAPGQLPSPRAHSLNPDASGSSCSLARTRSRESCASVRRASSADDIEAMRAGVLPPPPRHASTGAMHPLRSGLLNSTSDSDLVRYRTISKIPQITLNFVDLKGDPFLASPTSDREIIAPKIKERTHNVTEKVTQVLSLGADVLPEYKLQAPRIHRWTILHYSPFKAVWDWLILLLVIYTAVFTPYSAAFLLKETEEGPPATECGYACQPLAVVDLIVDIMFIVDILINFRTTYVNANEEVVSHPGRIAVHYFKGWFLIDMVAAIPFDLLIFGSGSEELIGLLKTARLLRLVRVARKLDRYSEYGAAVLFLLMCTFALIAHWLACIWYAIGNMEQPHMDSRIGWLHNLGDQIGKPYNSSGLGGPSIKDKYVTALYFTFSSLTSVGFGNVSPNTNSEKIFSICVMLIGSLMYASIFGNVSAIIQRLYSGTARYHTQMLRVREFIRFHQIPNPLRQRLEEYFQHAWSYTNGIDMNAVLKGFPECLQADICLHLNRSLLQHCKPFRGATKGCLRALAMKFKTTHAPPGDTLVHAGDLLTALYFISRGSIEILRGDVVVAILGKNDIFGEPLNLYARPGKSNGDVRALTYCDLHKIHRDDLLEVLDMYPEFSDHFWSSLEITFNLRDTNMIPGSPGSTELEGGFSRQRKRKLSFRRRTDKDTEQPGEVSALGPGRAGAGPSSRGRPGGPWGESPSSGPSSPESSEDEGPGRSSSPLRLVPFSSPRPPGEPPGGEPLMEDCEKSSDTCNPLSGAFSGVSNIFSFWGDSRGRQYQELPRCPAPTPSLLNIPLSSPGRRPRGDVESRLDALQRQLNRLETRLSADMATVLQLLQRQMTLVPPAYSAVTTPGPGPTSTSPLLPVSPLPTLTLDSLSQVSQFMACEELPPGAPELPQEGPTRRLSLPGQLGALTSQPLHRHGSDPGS

[6] = system: MOLM-13 cells; test: Test 2: inhibition of cell proliferation, MOLM-13; assay type: cell-based; settings: Homo sapiens, cultured 7 days, PrestoBlue
Experimental: as §1

Menin-MLL binding (His-Menin1-615, MLL1-172-FLAG), sequence (O00255 other isoform, or with tags, fused parts or gaps): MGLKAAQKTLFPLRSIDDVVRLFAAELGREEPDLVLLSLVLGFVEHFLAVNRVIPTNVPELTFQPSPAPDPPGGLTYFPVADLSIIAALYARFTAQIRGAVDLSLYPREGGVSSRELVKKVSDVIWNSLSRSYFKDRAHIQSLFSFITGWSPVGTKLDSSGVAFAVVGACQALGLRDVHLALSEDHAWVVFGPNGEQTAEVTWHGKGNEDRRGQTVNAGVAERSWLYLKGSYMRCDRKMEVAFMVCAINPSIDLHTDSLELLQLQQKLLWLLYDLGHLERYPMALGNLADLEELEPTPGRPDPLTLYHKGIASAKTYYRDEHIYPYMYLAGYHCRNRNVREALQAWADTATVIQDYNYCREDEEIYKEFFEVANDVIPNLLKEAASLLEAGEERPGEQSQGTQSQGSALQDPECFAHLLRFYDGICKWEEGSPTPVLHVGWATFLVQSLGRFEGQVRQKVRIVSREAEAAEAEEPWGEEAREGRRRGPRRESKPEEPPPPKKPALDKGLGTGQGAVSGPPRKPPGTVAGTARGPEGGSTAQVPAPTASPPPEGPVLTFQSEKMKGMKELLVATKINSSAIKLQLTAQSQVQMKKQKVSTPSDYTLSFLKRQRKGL

| Compound | Menin-MLL binding inhibition activity (in words) [1] | cell proliferation inhibition activity (in words) [2] | mRNA transcription inhibition activity (in words) [3] | mRNA at 1 μM (% control) MEIS1 [3] [% control] | mRNA at 1 μM (% control) HOXA9 [4] [% control] | IC50 ([5]; read-out: hERG inhibition IC50, CHO cell strain stably expressing hERG) [nM] | gap between RS4; 11 proliferation IC50 and hERG current IC50 [5] | IC50 [2] [nM] | IC50 [6] [nM] | hERG/RS4; 11 ([5]; hERG IC50 divided by RS4, 11 proliferation IC50) |
| --- | --- | --- | --- | --- | --- | --- | --- | --- | --- | --- |
| 2-[(4-{6-[(1R,3S,4R)-2-azabicyclo[2.2.2]octane-3-carbonyl]-2,6-diazaspiro[3.3]heptan-2-yl}pyrimidin-5-yl)oxy]-5-fluoro-N,N-di(propan-2-yl)benzamide [Example 11] | potent | potent | showed the mRNA transcription inhibition activity | 13.1 | 36.5 | > 10000 | more than 100 fold | – | – | – |
| CC(C)N(C(=O)c1cc(F)ccc1Oc1cncnc1N1CC2(CCN(C(=O)[C@H]3N[C@H]4CC[C@@H]3[C@@H](F)[C@H]4CC3CC3)CC2)C1)C(C)C [Example 14, 2-[(4-{7-[(1S,3S,4S,5S,6S)-6-(cyclopropylmethyl)-5-fluoro-2-azabicyclo[2.2.2]octane-3-carbonyl]-2,7-diazaspiro[3.5]nonan-2-yl}pyrimidin-5-yl)oxy]-5-fluoro-N,N-di(propan-2-yl)benzamide] | – | potent | – | – | – | – | more than 100 fold | 20 | 40 | 557 |
| C=C1C[C@@H]2CC[C@H]1[C@@H](C(=O)N1CC3(C1)CN(c1ncncc1Oc1ccc(F)cc1C(=O)N(C(C)C)C(C)C)C3)N2 [Example 7, 5-fluoro-2-[(4-{6-[(1S,3S,4R)-5-methylidene-2-azabicyclo[2.2.2]octane-3-carbonyl]-2,6-diazaspiro[3.3]heptan-2-yl}pyrimidin-5-yl)oxy]-N,N-di(propan-2-yl)benzamide] | – | – | showed the mRNA transcription inhibition activity | 12.7 | 37.9 | – | – | 10 | 30 | – |
